Reference: patent publication US20240383904A1, “HETEROCYCLIC COMPOUNDS” (Hoffmann-La Roche Inc., priority 2021, published 2024)

Biological target: T1, MAGL (Homo sapiens, UniProt Q99685)
T1 sequence (Q99685 1-303): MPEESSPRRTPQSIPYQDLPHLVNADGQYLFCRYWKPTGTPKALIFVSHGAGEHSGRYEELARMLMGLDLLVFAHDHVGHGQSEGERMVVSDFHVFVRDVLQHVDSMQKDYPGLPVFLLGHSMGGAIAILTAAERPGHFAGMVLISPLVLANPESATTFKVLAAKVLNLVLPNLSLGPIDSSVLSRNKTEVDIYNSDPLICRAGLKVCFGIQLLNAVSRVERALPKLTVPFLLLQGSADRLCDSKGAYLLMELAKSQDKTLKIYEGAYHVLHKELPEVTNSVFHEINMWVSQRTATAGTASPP
Assay: 2-AG assay: MAGL inhibitory activity by hydrolysis of 2-arachidonoylglycerol to arachidonic acid, followed by mass spectrometry
Assay type: biochemical
Settings: 15 min preincubation, 30 min reaction at RT, 8 μM 2-arachidonoylglycerol

Compound	IC50 [nM]
O=C1NC2(CCO1)CN(C(=O)N1CC3(CCN(S(=O)(=O)c4ccc(C(F)(F)F)cc4F)CC3)C1)C2 [Example 144, 2-[7-[2-fluoro-4-(trifluoromethyl)phenyl]sulfonyl-2,7-diazaspiro[3.5]nonane-2-carbonyl]-7-oxa-2,5-diazaspiro[3.5]nonan-6-one]	2120
O=C1COCC2(CN(C(=O)N3CC4(CC(Cc5ccc(C(F)(F)F)cc5F)C4)C3)C2)N1 [Example 145]	0.06
O=C1CCC2(CN(C(=O)N3CC4(CCN(Cc5ccc(C(F)(F)F)cn5)CC4)C3)C2)N1 [Example 146, 2-[7-[[5-(trifluoromethyl)-2-pyridyl]methyl]-2,7-diazaspiro[3.5]nonane-2-carbonyl]-2,5-diazaspiro[3.4]octan-6-one]	10.9
CS(=O)(=O)c1cc(F)ccc1CC1CC2(C1)CN(C(=O)N1CC3(COCC(=O)N3)C1)C2 [Example 147, 2-[6-(4-fluoro-2-mesyl-benzyl)-2-azaspiro[3.3]heptane-2-carbonyl]-8-oxa-2,5-diazaspiro[3.5]nonan-6-one]	23.2
O=C1CCC2(CN(C(=O)N3CC4(CCN(Cc5ccc(C(F)(F)F)nc5)CC4)C3)C2)N1 [Example 148, 2-[7-[[6-(trifluoromethyl)-3-pyridyl]methyl]-2,7-diazaspiro[3.5]nonane-2-carbonyl]-2,5-diazaspiro[3.4]octan-6-one]	123
O=C1NC2(CO1)CN(C(=O)N1CC3(CCN(Cc4ccc(C(F)(F)F)cn4)CC3)C1)C2 [Example 149, 2-[7-[[5-(trifluoromethyl)-2-pyridyl]methyl]-2,7-diazaspiro[3.5]nonane-2-carbonyl]-7-oxa-2,5-diazaspiro[3.4]octan-6-one]	1.68
O=C1CCC2(CN(C(=O)N3CC4(CCN(Cc5ccc(C(F)(F)F)cn5)C4)C3)C2)N1 [Example 150, 2-[7-[[5-(trifluoromethyl)-2-pyridyl]methyl]-2,7-diazaspiro[3.4]octane-2-carbonyl]-2,5-diazaspiro[3.4]octan-6-one]	140
O=C1NC2(CO1)CN(C(=O)N1CC3(CCN(Cc4ccc(C(F)(F)F)nc4)CC3)C1)C2 [Example 151, 2-[7-[[6-(trifluoromethyl)-3-pyridyl]methyl]-2,7-diazaspiro[3.5]nonane-2-carbonyl]-7-oxa-2,5-diazaspiro[3.4]octan-6-one]	196
O=C1CCC2(CN(C(=O)N3CC4(CCN(Cc5ccc(C(F)(F)F)nc5)C4)C3)C2)N1 [Example 152, 2-[7-[[6-(trifluoromethyl)-3-pyridyl]methyl]-2,7-diazaspiro[3.4]octane-2-carbonyl]-2,5-diazaspiro[3.4]octan-6-one]	3.07
O=C1NC2(CO1)CN(C(=O)N1CC3(CN(Cc4cc(F)cc(F)c4)C3)C1)C2 [Example 153, 2-[6-(3,5-difluorobenzyl)-2,6-diazaspiro[3.3]heptane-2-carbonyl]-7-oxa-2,5-diazaspiro[3.4]octan-6-one]	4.75
O=C1NC2(CO1)CN(C(=O)N1CC3(CCN(Cc4ccc(C(F)(F)F)cn4)C3)C1)C2 [Example 154, 2-[7-[[5-(trifluoromethyl)-2-pyridyl]methyl]-2,7-diazaspiro[3.4]octane-2-carbonyl]-7-oxa-2,5-diazaspiro[3.4]octan-6-one]	4.11
O=C1CCC2(CN(C(=O)N3CC4(CCN(Cc5cnc(C(F)(F)F)cn5)C4)C3)C2)N1 [Example 155, 2-[7-[[5-(trifluoromethyl)pyrazin-2-yl]methyl]-2,7-diazaspiro[3.4]octane-2-carbonyl]-2,5-diazaspiro[3.4]octan-6-one]	237
O=C1NC2(CO1)CN(C(=O)N1CC3(CCN(Cc4ccc(C(F)(F)F)nc4)C3)C1)C2 [Example 156, 2-[7-[[6-(trifluoromethyl)-3-pyridyl]methyl]-2,7-diazaspiro[3.4]octane-2-carbonyl]-7-oxa-2,5-diazaspiro[3.4]octan-6-one]	5.07
O=C1NC2(CO1)CN(C(=O)N1CC3(CCN(Cc4cnc(C(F)(F)F)cn4)C3)C1)C2 [Example 157, 2-[7-[[5-(trifluoromethyl)pyrazin-2-yl]methyl]-2,7-diazaspiro[3.4]octane-2-carbonyl]-7-oxa-2,5-diazaspiro[3.4]octan-6-one]	9.86
O=C1NC2(CO1)CN(C(=O)N1CC3(CCN(Cc4ccc(C(F)(F)F)nn4)C3)C1)C2 [Example 158, 2-[7-[[6-(trifluoromethyl)pyrida-zin-3-yl]methyl]-2,7-diazaspiro[3.4]octane-2-carbonyl]-7-oxa-2,5-diazaspiro[3.4]octan-6-one]	33.9
O=C1NC2(CO1)CN(C(=O)N1CC3(CN(Cc4ccc(C(F)(F)F)nn4)C3)C1)C2 [Example 159, 2-[6-[[6-(trifluoromethyl)pyrida-zin-3-yl]methyl]-2,6-diazaspiro[3.3]heptane-2-carbonyl]-7-oxa-2,5-diazaspiro[3.4]octan-6-one]	109
CS(=O)(=O)c1ccc(CN2CCC3(CC2)CN(C(=O)N2CC4(CCC(=O)N4)C2)C3)cc1 [Example 160, 2-[7-(4-mesylbenzyl)-2,7-diazaspiro[3.5]nonane-2-carbonyl]-2,5-diazaspiro[3.4]octan-6-one]	279

Compound	IC50 [nM]
O=C1NC2(CO1)CN(C(=O)N1CC3(CN(Cc4cnc(C(F)(F)F)nc4)C3)C1)C2 [Example 161, 2-[6-[[2-(trifluoromethyl)pyrimi-din-5-yl]methyl]-2,6-diazaspiro[3.3]heptane-2-carbonyl]-7-oxa-2,5-diazaspiro[3.4]octan-6-one]	51.5
O=C1NC2(CO1)CN(C(=O)N1CC3(CN(Cc4ncc(F)cc4F)C3)C1)C2 [Example 162, 2-[6-[(3,5-difluoro-2-pyridyl)methyl]-2,6-diazaspiro[3.3]heptane-2-carbonyl]-7-oxa-2,5-diazaspiro[3.4]octan-6-one]	15.1
CS(=O)(=O)c1cccc(CN2CCC3(CC2)CN(C(=O)N2CC4(CCC(=O)N4)C2)C3)c1 [Example 163, 2-[7-(3-mesylbenzyl)-2,7-diazaspiro[3.5]nonane-2-carbonyl]-2,5-diazaspiro[3.4]octan-6-one]	2.78
CS(=O)(=O)c1ccc(CN2CC3(C2)CN(C(=O)N2CC4(COC(=O)N4)C2)C3)cc1 [Example 164, 2-[6-(4-mesylbenzyl)-2,6-diazaspiro[3.3]heptane-2-carbonyl]-7-oxa-2,5-diazaspiro[3.4]octan-6-one]	52.5
Cn1ncc(CC2CC3(C2)CN(C(=O)N2CC4(CCC(=O)N4)C2)C3)c1C(F)(F)F [Example 165]	0.52
Cn1nc(CC2CC3(C2)CN(C(=O)N2CC4(CCC(=O)N4)C2)C3)cc1C(F)(F)F [Example 166, 2-[6-[[1-methyl-5-(trifluoromethyl)pyrazol-3-yl]methyl]-2-azaspiro[3.3]heptane-2-carbonyl]-2,5-diazaspiro[3.4]octan-6-one]	1.31
Cn1ncc(C(F)(F)F)c1CC1CC2(C1)CN(C(=O)N1CC3(CCC(=O)N3)C1)C2 [Example 167, 2-[6-[[2-methyl-4-(trifluoromethyl)pyrazol-3-yl]methyl]-2-azaspiro[3.3]heptane-2-carbonyl]-2,5-diazaspiro[3.4]octan-6-one]	1.72
O=C1CCC2(CN(C(=O)N3CC4(CC(Cn5nccc5C(F)(F)F)C4)C3)C2)N1 [Example 168, 2-[6-[[5-(trifluoromethyl)pyrazol-1-yl]methyl]-2-azaspiro[3.3]heptane-2-carbonyl]-2,5-diazaspiro[3.4]octan-6-one]	2.45
Cn1cc(CC2CC3(C2)CN(C(=O)N2CC4(CCC(=O)N4)C2)C3)c(C(F)(F)F)n1 [Example 169, 2-[6-[[1-methyl-3-(trifluoromethyl)pyrazol-4-yl]methyl]-2-azaspiro[3.3]heptane-2-carbonyl]-2,5-diazaspiro[3.4]octan-6-one]	2.35
O=C1COCC2(CN(C(=O)N3CC4(CC(Cc5ccc(C(F)(F)F)cn5)C4)C3)C2)N1 [Example 170, 2-[6-[[5-(trifluoromethyl)-2-pyridyl]methyl]-2-azaspiro[3.3]heptane-2-carbonyl]-8-oxa-2,5-diazaspiro[3.5]nonan-6-one]	7.82
O=C1COCC2(CN(C(=O)N3CC4(CC(Cc5ncc(C(F)(F)F)cc5F)C4)C3)C2)N1 [Example 171, 2-[6-[[3-fluoro-5-(trifluoromethyl)-2-pyridyl]methyl]-2-azaspiro[3.3]heptane-2-carbonyl]-8-oxa-2,5-diazaspiro[3.5]nonan-6-one]	1.42
O=C1COCC2(CN(C(=O)N3CC4(CC(Cc5cncc(Cl)c5)C4)C3)C2)N1 [Example 172, 2-[6-[(5-chloro-3-pyridyl)methyl]-2-azaspiro[3.3]heptane-2-carbonyl]-8-oxa-2,5-diazaspiro[3.5]nonan-6-one]	38.2
O=C1COCC2(CN(C(=O)N3CC4(CC(Cc5cncc(C(F)(F)F)c5)C4)C3)C2)N1 [Example 173, 2-[6-[[5-(trifluoromethyl)-3-pyridyl]methyl]-2-azaspiro[3.3]heptane-2-carbonyl]-8-oxa-2,5-diazaspiro[3.5]nonan-6-one]	20.8
O=C1COCC2(CN(C(=O)N3CC4(CC(Cc5ccc(C(F)(F)F)nc5)C4)C3)C2)N1 [Example 174, 2-[6-[[6-(trifluoromethyl)-3-pyridyl]methyl]-2-azaspiro[3.3]heptane-2-carbonyl]-8-oxa-2,5-diazaspiro[3.5]nonan-6-one]	16.7
O=C1CCC2(CN(C(=O)N3CC4(CC(Cc5ncc(Cl)cc5F)C4)C3)C2)N1 [Example 175, 2-[6-[(5-chloro-3-fluoro-2-pyridyl)methyl]-2-azaspiro[3.3]heptane-2-carbonyl]-2,5-diazaspiro[3.4]octan-6-one]	1.69
O=C1COCC2(CN(C(=O)N3CC4(CC(Cc5ncc(F)cc5Cl)C4)C3)C2)N1 [Example 176, 2-[6-[(3-chloro-5-fluoro-2-pyridyl)methyl]-2-azaspiro[3.3]heptane-2-carbonyl]-8-oxa-2,5-diazaspiro[3.5]nonan-6-one]	3
